Patent US20240366756A1, “COMBINATIONS AND USES THEREOF” (Incyte Corporation, priority 2011, published 2024)

B1: RefmAb33: antibody specific for RSV, used as isotype control, shares the same Fc region as MOR00208 (SEQ ID NO: 8, 9) (antibody)
heavy: QVTLRESGPALVKPTQTLTLTCTFSGFSLSTAGMSVGWIRQPPGKALEWLADIWWDDKKHYNPSLKDRLTISKDTSKNQVVLKVTNMDPADTATYYCARDMIFNFYFDVWGQGTTVTVSSASTKGPSVFPLAPSSKSTSGGTAALGCLVKDYFPEPVTVSWNSGALTSGVHTFPAVLQSSGLYSLSSVVTVPSSSLGTQTYICNVNHKPSNTKVDKKVEPKSCDKTHTCPPCPAPELLGGPDVFLFPPKPKDTLMISRTPEVTCVVVDVSHEDPEVQFNWYVDGVEVHNAKTKPREEQFNSTFRVVSVLTVVHQDWLNGKEYKCKVSNKALPAPEEKTISKTKGQPREPQVYTLPPSREEMTKNQVSLTCLVKGFYPSDIAVEWESNGQPENNYKTTPPMLDSDGSFFLYSKLTVDKSRWQQGNVFSCSVMHEALHNHYTQKSLSLSPGK
light: DIQMTQSPSTLSASVGDRVTITCSASSRVGYMHWYQQKPGKAPKLLIYDTSKLASGVPSRFSGSGSGTEFTLTISSLQPDDFATYYCFQGSGYPFTFGGGTKVEIKRTVAAPSVFIFPPSDEQLKSGTASVVCLLNNFYPREAKVQWKVDNALQSGNSQESVTEQDSKDSTYSLSSTLTLSKADYEKHKVYACEVTHQGLSSPVTKSFNRGEC
modifications: Heavy chain RefMab33; Light chain RefMab33

System: MEC-1 cells
Assay: Cytotoxicity/ADCC cell killing of MEC-1 cells with PBMCs (FACS, propidium iodide)
Assay type: cell-based, human
Details: for normalized specific killing: combination set to 1, Bendamustine 100 μg/ml, MOR00208 6.6 pM; for % dead cells: MOR00208 6.6 pm, BEN 100 μg/ml (48 h pre-incubation), E:T 30:1, 4 h, control RefMab33
Description: MEC-1 cells: chronic B-cell leukemia cell line DSMZ #ACC497; Cell Medium: Iscove's Modified Dulbecco's Medium (IMDM) with GlutaMAX™, Invitrogen, Cat No.: 31980-048, 20% FCS; PBMCs: RPMI1640, with stabile Glutamine, PAN Biotech GmbH, Cat No.: P04-13500 supplemented with 10% FCS; Biocoll: Biochrome AG CAT No.: L6115 LOT No.: 1050T; Bendamustine: Mundipharma LOT No.: 88018; FCS: PAN CAT No.: 3302-P282403 LOT No.: P282403; and RefmAb33 (anti-RSV) with same Fc region as MOR00208.
The cytotoxicity of MOR00208 and bendamustine alone and in combination was tested in MEC-1 cells. BEN is an alkylating agent, therefore, functions via direct cytoxicity in MEC-1 cells. MOR00208 targets CD19 and additionally functions via ADCC in killing MEC-1 cells. For the following groups MEC-1 cell killing was measured: BEN at 100 μg/ml; MOR00208 at 6.6 pm and the combination of MOR00208 at 6.6 pm and BEN at 100 μg/ml. […] The following were used as controls: RefmAb33, or PBMCs alone. In both the BEN group and MOR00208+BEN combination group, MEC-1 cells were pre-incubated with BEN 48 hours prior to the ADCC assay measurements. The MEC-1 cells were stained using 1 mg/ml Calcein AM then counted and adjusted to 2×10^5/ml. The PBMCs were counted and adjusted to 6×10^6/ml. The cell killing assays were done as follows: using 96 well plates, a 100 μl cell suspension of MEC-1 cells was added per well, then 100 μl cell suspension of PBMCs was added to each well resulting in an E:T ratio of 30:1. The antibodies were diluted to 1 μg/ml in medium. Cells were centrifuged and re-suspended. To the target:effector cell-pellet, 100 μl antibody solution or according control solution was added. The mixture was incubated for 4 h in CO2-incubator at 37° C. The cell killing measurements were taken as follows: the incubated cell solution (˜100 μl) was transferred into FACS tubes and 200 μl FACS buffer (DPBS+3% FCS) and 0.5 μl PI stock solution was added to each tube. FACS-Calibur was used. Dead MEC-1 cells were stained with propidium iodide.
The values represent % dead cells. Each experiment represents PBMCs from different donors. The controls used for each experiment was RefMab33.
The values shown in Table 2 are calculated as follows: 1) from the raw data (% dead cells) shown in Table 1, the background (controls) were subtracted, resulting in the specific killing for each treatment group; then 2) the specific killing values were normalized by setting the combination of MOR00208+BEN to 1. The averages of Table 2 are depicted in FIG. 5.
[…] (CI) calculations were completed in order to determine synergy of the combination of the exemplified anti-CD19 antibody and bendamustine as compared to MOR00208 and BEN alone. Such calculations are described in Ting-Chao Chou, Theoretical Basis, Experimental Design, and Computerized Simulation of Synergism and Antagonism in Drug Combination Studies, Pharmacol Rev 58:621-681 (2006), which is incorporated by reference in its entirety and Chou T C, Talalay P, Quantitative analysis of dose-effect relationships: the combined effects of multiple drugs or enzyme inhibitors. Adv Enzyme Regul 22:27-55 (1984), which is incorporated by reference in its entirety. The methods of Chou-Talalay are carried out using the CI-isobol method.
The median-effect equation models of the effect of an inhibitor (such as a drug) as Fa/Fu=(D/D50)^m, where D is the dose, Fa and Fu is the fraction of the system affected and unaffected by the dose D (Fa+Fu=1); D50 is the dose producing the median effect (e.g. IC50, ED50, LD50). The constant m determines the shape of the dose-effect curve. We used Excel Fit software to carry out a linear regression calculation to estimate the parameters m and D50.
The effects of the combination on MEC-1 cells is measured % cell death as described above.

Molecule | normalized specific killing (Average of experiments 1-3) | % dead cells (Experiment 1 (PBMC donor)) [%] | normalized specific killing (Experiment 1, background subtracted) | % dead cells (Experiment 2 (PBMC donor)) [%] | normalized specific killing (Experiment 2, background subtracted) | % dead cells (Experiment 3 (PBMC donor)) [%] | normalized specific killing (Experiment 3, background subtracted) | EC50 (concentration chosen as near or at the EC50, read-out: EC50 (MEC-1 cell killing)) [pM] | Bonferroni's Multiple Comparison Test Mean Diff. (normalized specific killing, monotherapy vs. BEN + MOR00208 combination)
MOR00208: anti-CD19 antibody; variable domains shown in FIG. 3, heavy and light chain Fc regions in FIG. 4 | 0.6 | 73.6 | 0.70 | 41.5 | 0.50 | 57.2 | 0.50 | ~6.6 | −0.4321
B1 | – | 25.2 | – | 18 | – | 30.9 | – | – | –
